Experimental data as given in US20250114374A1, “BCL-2 INHIBITORS” (Newave Pharmaceutical Inc., priority 2021, published 2025).

What follows are compounds tested on RS4; 11 with G101V mutation (assay: In vitro anti-proliferation assay (ATPlite luminescence) in BCL-2-dependent ALL cell line RS4;11 with G101V mutation). Conditions: cellular anti-proliferative IC50, about 72 hours, medium with 10% FBS, ATPlite; read-out: RS411-G101V IC50.
Type: cell-based
In short: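 IC50 came from luminescent ATP quantification (ATPlite) following cell lysis. Compound dose ranges were applied for roughly 72 h to about 1×10^4 G101V-mutant RS4;11 cells per well, in 10% FBS medium.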

`COc1ncc(CN2CCN(C3CC4(CCN(c5ccc(C(=O)NS(=O)(=O)c6ccc(NCC7CCC(C)(O)CC7)c([N+](=O)[O-])c6)c(N6c7cc8cc[nH]c8nc7O[C@H]7COCC[C@@H]76)c5)CC4)C3)[C@@H](c3ccccc3OC(C)C)C2)cc1C` (stereo partly drawn) [Example 158, N-((4-((((1r,4r)-4-hydroxy-4-methylcyclohexyl)methyl)amino)-3-nitrophenyl)sulfonyl)-4-(2-((S)-2-(2-isopropoxyphenyl)-4-((6-methoxy-5-methylpyridin-3-yl)methyl)piperazin-1-yl)-7-azaspiro[3.5]nonan-7-yl)-2-((5aS,9aR)-6,7,9,9a-tetrahydro-1H-pyrano[3,4-b]pyrrolo[3′,2′:5,6]pyrido[3,2-e][1,4]oxazin-5(5aH)-yl)benzamide] and `COc1ncc(CN2CCN(C3CC4(CCN(c5ccc(C(=O)NS(=O)(=O)c6ccc(NCC7CCC(C)(O)CC7)c([N+](=O)[O-])c6)c(N6c7cc8cc[nH]c8nc7O[C@H]7COCC[C@@H]76)c5)CC4)C3)[C@@H](c3ccccc3OC(C)C)C2)cc1N1CCOCC1` (stereo partly drawn) [Example 163, N-((4-((((1r,4r)-4-hydroxy-4-methylcyclohexyl)methyl)amino)-3-nitrophenyl)sulfonyl)-4-(2-((S)-2-(2-isopropoxyphenyl)-4-((6-methoxy-5-morpholinopyridin-3-yl)methyl)piperazin-1-yl)-7-azaspiro[3.5]nonan-7-yl)-2-((5aS,9aR)-6,7,9,9a-tetrahydro-1H-pyrano[3,4-b]pyrrolo[3′,2′:5,6]pyrido[3,2-e][1,4]oxazin-5(5aH)-yl)benzamide] are within 1.5-fold of each other in IC50: 21.2 nM for the first, 27.9 nM for the second.

Going from `CC(C)Oc1ccccc1[C@H]1CN(CC2CCOCC2)CCN1C1CC2(CCN(c3ccc(C(=O)NS(=O)(=O)c4ccc(NCC5CCC(C)(O)CC5)c([N+](=O)[O-])c4)c(N4c5cc6cc[nH]c6nc5O[C@H]5COCC[C@@H]54)c3)CC2)C1` (stereo partly drawn) [Example 159, 2-[(3R,8S)-2,5-dioxa-9,15,17-triazatetracyclo[8.7.0.0^{3,8}.0^{12,16}]heptadeca-1(10),11,13,16-tetraen-9-yl]-4-{2-[(2S)-2-(2-isopropoxyphenyl)-4-(oxan-4-ylmethyl)piperazin-1-yl]-7-azaspiro[3.5]nonan-7-yl}-N-[3-nitro-4-({[(1r,4r)-4-hydroxy-4-methylcyclohexyl]methyl}amino)benzenesulfonyl]benzamide] to `CC(C)Oc1ccccc1[C@H]1CN(C2CCN(C3CCOCC3)CC2)CCN1C1CC2(CCN(c3ccc(C(=O)NS(=O)(=O)c4ccc(NC[C@H]5CC[C@](C)(O)CC5)c([N+](=O)[O-])c4)c(N4c5cc6cc[nH]c6nc5O[C@H]5COCC[C@@H]54)c3)CC2)C1` [Example 162, N-((4-((((1r,4r)-4-hydroxy-4-methylcyclohexyl)methyl)amino)-3-nitrophenyl)sulfonyl)-4-(2-((S)-2-(2-isopropoxyphenyl)-4-(1-(tetrahydro-2H-pyran-4-yl)piperidin-4-yl)piperazin-1-yl)-7-azaspiro[3.5]nonan-7-yl)-2-((5aS,9aR)-6,7,9,9a-tetrahydro-1H-pyrano[3,4-b]pyrrolo[3′,2′:5,6]pyrido[3,2-e][1,4]oxazin-5(5aH)-yl)benzamide], the IC50 rises from 7.5 nM to 49.9 nM (6.7-fold). The first is the more potent here.

Compared with `CC(C)Oc1ccccc1[C@H]1CN(C2CCC(N3CCOC[C@H]3C)CC2)CCN1C1CC2(CCN(c3ccc(C(=O)NS(=O)(=O)c4ccc(NCC5CCC(C)(O)CC5)c([N+](=O)[O-])c4)c(N4c5cc6cc[nH]c6nc5O[C@H]5COCC[C@@H]54)c3)CC2)C1` (stereo partly drawn) [Example 160, N-((4-((((1r,4r)-4-hydroxy-4-methylcyclohexyl)methyl)amino)-3-nitrophenyl)sulfonyl)-4-(2-((S)-2-(2-isopropoxyphenyl)-4-((1S,4R)-4-((R)-3-methylmorpholino)cyclohexyl)piperazin-1-yl)-7-azaspiro[3.5]nonan-7-yl)-2-((5aS,9aR)-6,7,9,9a-tetrahydro-1H-pyrano[3,4-b]pyrrolo[3′,2′:5,6]pyrido[3,2-e][1,4]oxazin-5(5aH)-yl)benzamide], `COc1cc(CN2CCN(C3CC4(CCN(c5ccc(C(=O)NS(=O)(=O)c6cc7c(c([N+](=O)[O-])c6)N[C@H](C6CCOCC6)CO7)c(N6c7cc8cc[nH]c8nc7O[C@H]7COCC[C@@H]76)c5)CC4)C3)[C@H](c3ccccc3OC(C)C)C2)cnc1N1CCOC[C@@H]1C` [Example 169, 2-[(3R,8S)-2,5-dioxa-9,15,17-triazatetracyclo[8.7.0.0^{3,8}.0^{12,16}]heptadeca-1(10),11,13,16-tetraen-9-yl]-4-{2-[(2R)-2-(2-isopropoxyphenyl)-4-({5-methoxy-6-[(3S)-3-methylmorpholin-4-yl]pyridin-3-yl}methyl)piperazin-1-yl]-7-azaspiro[3.5]nonan-7-yl}-N-[(3R)-5-nitro-3-(oxan-4-yl)-3,4-dihydro-2H-1,4-benzoxazin-7-ylsulfonyl]benzamide] is 6-fold lower in IC50: 22.8 nM for the first, 3.82 nM for the second.

First: CC(C)Oc1ccccc1[C@H]1CN(C2CCC(N3CCOC[C@H]3C)CC2)CCN1C1CC2(CCN(c3ccc(C(=O)NS(=O)(=O)c4ccc(NCC5CCC(C)(O)CC5)c([N+](=O)[O-])c4)c(N4c5cc6cc[nH]c6nc5O[C@H]5COCC[C@@H]54)c3)CC2)C1 (stereo partly drawn) [Example 161, N-((4-((((1r,4r)-4-hydroxy-4-methylcyclohexyl)methyl)amino)-3-nitrophenyl)sulfonyl)-4-(2-((S)-2-(2-isopropoxyphenyl)-4-((1R,4S)-4-((R)-3-methylmorpholino)cyclohexyl)piperazin-1-yl)-7-azaspiro[3.5]nonan-7-yl)-2-((5aS,9aR)-6,7,9,9a-tetrahydro-1H-pyrano[3,4-b]pyrrolo[3′,2′:5,6]pyrido[3,2-e][1,4]oxazin-5(5aH)-yl)benzamide]
Second: CC(C)c1ccccc1[C@@H]1CN(Cc2ccc(F)c(F)c2)CCN1C1CC2(CCN(c3ccc(C(=O)NS(=O)(=O)c4ccc(NCC5CCOCC5)c([N+](=O)[O-])c4)c(N4c5cc6cc[nH]c6nc5O[C@H]5COCC[C@@H]54)c3)CC2)C1 [Example 165, 4-{2-[(2R)-4-[(3,4-difluorophenyl)methyl]-2-(2-isopropylphenyl)piperazin-1-yl]-7-azaspiro[3.5]nonan-7-yl}-2-[(3R,8S)-2,5-dioxa-9,15,17-triazatetracyclo[8.7.0.0^{3,8}.0^{12,16}]heptadeca-1(10),11,13,16-tetraen-9-yl]-N-{3-nitro-4-[(oxan-4-ylmethyl)amino]benzenesulfonyl}benzamide]
The IC50 of the first is 1.7-fold higher: 18.1 nM for the first, 10.9 nM for the second.

Compared with `Cc1ccccc1[C@@H]1CN(Cc2ccc(F)c(F)c2)CCN1C1CC2(CCN(c3ccc(C(=O)NS(=O)(=O)c4ccc(NCC5CCOCC5)c([N+](=O)[O-])c4)c(N4c5cc6cc[nH]c6nc5O[C@H]5COCC[C@@H]54)c3)CC2)C1` [Example 164, 4-{2-[(2R)-4-[(3,4-difluorophenyl)methyl]-2-(2-methylphenyl)piperazin-1-yl]-7-azaspiro[3.5]nonan-7-yl}-2-[(3R,8S)-2,5-dioxa-9,15,17-triazatetracyclo[8.7.0.0^{3,8}.0^{12,16}]heptadeca-1(10),11,13,16-tetraen-9-yl]-N-{3-nitro-4-[(oxan-4-ylmethyl)amino]benzenesulfonyl}benzamide], `CC(C)c1ccccc1[C@H]1CN(Cc2ccc(F)c(F)c2)CCN1C1CC2(CCN(c3ccc(C(=O)NS(=O)(=O)c4ccc(NCC5CCOCC5)c([N+](=O)[O-])c4)c(N4c5cc6cc[nH]c6nc5O[C@H]5COCC[C@@H]54)c3)CC2)C1` [Example 166, 4-{2-[(2S)-4-[(3,4-difluorophenyl)methyl]-2-(2-isopropylphenyl)piperazin-1-yl]-7-azaspiro[3.5]nonan-7-yl}-2-[(3R,8S)-2,5-dioxa-9,15,17-triazatetracyclo[8.7.0.0^{3,8}.0^{12,16}]heptadeca-1(10),11,13,16-tetraen-9-yl]-N-{3-nitro-4-[(oxan-4-ylmethyl)amino]benzenesulfonyl}benzamide] is 12-fold higher in IC50: 48.5 nM for the first, 585 nM for the second.

`Cc1ccccc1[C@@H]1CN(Cc2ccc(F)c(F)c2)CCN1C1CC2(CCN(c3ccc(C(=O)NS(=O)(=O)c4cc5c(c([N+](=O)[O-])c4)N[C@@H](C4CCOCC4)CO5)c(N4c5cc6cc[nH]c6nc5O[C@H]5COCC[C@@H]54)c3)CC2)C1` [Example 167, 4-{2-[(2R)-4-[(3,4-difluorophenyl)methyl]-2-(2-methylphenyl)piperazin-1-yl]-7-azaspiro[3.5]nonan-7-yl}-2-[(3R,8S)-2,5-dioxa-9,15,17-triazatetracyclo[8.7.0.0^{3,8}.0^{12,16}]heptadeca-1(10),11,13,16-tetraen-9-yl]-N-[(3S)-5-nitro-3-(oxan-4-yl)-3,4-dihydro-2H-1,4-benzoxazin-7-ylsulfonyl]benzamide] and `Cc1ccccc1[C@@H]1CN(Cc2ccc(F)c(F)c2)CCN1C1CC2(CCN(c3ccc(C(=O)NS(=O)(=O)c4cc5c(c([N+](=O)[O-])c4)N[C@H](C4CCOCC4)CO5)c(N4c5cc6cc[nH]c6nc5O[C@H]5COCC[C@@H]54)c3)CC2)C1` [Example 168, 4-{2-[(2R)-4-[(3,4-difluorophenyl)methyl]-2-(2-methylphenyl)piperazin-1-yl]-7-azaspiro[3.5]nonan-7-yl}-2-[(3R,8S)-2,5-dioxa-9,15,17-triazatetracyclo[8.7.0.0^{3,8}.0^{12,16}]heptadeca-1(10),11,13,16-tetraen-9-yl]-N-[(3R)-5-nitro-3-(oxan-4-yl)-3,4-dihydro-2H-1,4-benzoxazin-7-ylsulfonyl]benzamide] are within 1.5-fold of each other in IC50: 75.8 nM for the first, 64.3 nM for the second.

In the case of `Cc1ccccc1[C@@H]1CN([C@H]2CCOc3cc(F)c(F)cc32)CCN1C1CC2(CCN(c3ccc(C(=O)NS(=O)(=O)c4cc5c(c([N+](=O)[O-])c4)N[C@H](C4CCOCC4)CO5)c(N4c5cc6cc[nH]c6nc5O[C@H]5COCC[C@@H]54)c3)CC2)C1` [Example 170, 4-{2-[(2R)-4-[(4S)-6,7-difluoro-3,4-dihydro-2H-1-benzopyran-4-yl]-2-(2-methylphenyl)piperazin-1-yl]-7-azaspiro[3.5]nonan-7-yl}-2-[(3R,8S)-2,5-dioxa-9,15,17-triazatetracyclo[8.7.0.0^{3,8}.0^{12,16}]heptadeca-1(10),11,13,16-tetraen-9-yl]-N-[(3R)-5-nitro-3-(oxan-4-yl)-3,4-dihydro-2H-1,4-benzoxazin-7-ylsulfonyl]benzamide], the IC50 is reported as 205 nM.
